System: Sebocytes SEBO662 (3D epithelium)
Assay: Lipid synthesis/accumulation in 3D model culture of Sebocytes (Oil-red-O staining, lipid droplet surface area)
Format: cell-based, human
Details: for lipid accumulation, % of the control / stimulation of lipid accumulation (in words): 14 days incubation, 3D Sebocytes; for lipid accumulation, % of the control: Oil-red-O lipid droplet surface area; for effect on lipid synthesis in the 3D Sebocytes model (conclusion, in words): overall conclusion, no concentration stated
Text: Since secretory cells (meibocytes) of meibomian glands, share similarities with that of the secretory cells (sebocytes) of sebaceous glands, as can be validated from their similar structure, similar function and their joint embryologic development (Knop 2011_IOVS) the effect of Thiol containing Lipids on lipid production can be evaluated in a 3D model culture of Sebocytes. See also: Barrault 2012, Immortalized sebocytes can spontaneously differentiate into a sebaceous-like phenotype when cultured as a 3D epithelium, Exp. Derm, 21:299-319
The effect of different compounds on lipid synthesis was evaluated, in a 3D model culture of Sebocytes. Drug candidates were drugs containing S—H or disulfide: Selenium disulfide (SeS2 dispersed in CarboxymethylCellulose—CMC) as a positive control, Selenocysteine, Captopril, Disulfiram and lipids containing S—H or disulfide: Thioethanol, 12-Mercaptododecanoic acid. Since Sebocytes differentiation is associated with increased lipid synthesis and accumulation, evaluation of proliferation and differentiation was done by quantifying lipid accumulation in the 3D Sebocytes culture (human cell line—SEBO662). Lipid accumulation was evaluated by lipid staining with Oil red staining.
Sebocytes SEBO662 were cultured into a three dimension (3D) epithelium and differentiated to a sebaceous-like phenotype. The Sebocytes were treated or not (control) with the test compounds and incubated for 14 days. All experiments were performed 3 times. After incubation, tissues were snap-frozen. Formaldehyde-fixed cryo sections were stained using an Oil-red-O solution and counterstained using haematoxylin. For each test condition, the sections were observed using a light microscope equipped with a camera. Five pictures were taken per replicate, making 15 values per treatment condition. The lipid content in each sample was quantified by calculation of the lipid droplet surface area. Quantitative comparison of all data points between lipid's droplet surface area of tested compounds versus control was performed

Row | SMILES | lipid accumulation, % of the control (0.1 μM) | lipid accumulation, % of the control (1 μM) | effect on lipid synthesis in the 3D Sebocytes model (conclusion, in words) | lipid accumulation, % of the control (10 μM) | lipid accumulation, % of the control (100 μM) | stimulation of lipid accumulation (in words) (1000 μM) | lipid accumulation, % of the control (0.01 μM) | stimulation of lipid accumulation (in words) (10 μM)
1 | O=C(O)CCCCCCCCCCCS [12-Mercaptododecanoic acid] | 385% | 349% | significant stimulating effect |  |  |  |  | 
2 | C[C@H](CS)C(=O)N1CCC[C@H]1C(=O)O [Captopril] |  | 240% | significant stimulating effect | 173% |  |  |  | 
3 | CCN(CC)C(=S)SSC(=S)N(CC)CC [Disulfiram] |  |  | significant stimulating effect |  | 199% | no stimulation effect |  | 
4 | S=[Se]=S [Selenium disulfide] | 348% |  | significant stimulating effect |  |  |  | 282% | 
5 | N[C@@H](C[SeH])C(=O)O [Selenocysteine] |  | 296% | significant stimulating effect |  |  |  |  | no stimulation effect
6 | OCCS [Thioethanol] | 251% | 228% | significant stimulating effect |  |  |  |  | 
